Values joined by “and” are separate entries in the source; they are usually repeats but may differ in a detail not shown here. Equal values may be shown once.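 Method: 48-hour compound exposure of cells in 96-well plates, five concentrations, linear interpolation of endpoints. Here, GI50 denotes the concentration required for 50% inhibition of growth. At the TGI there is no net growth.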
Columns and labels:
Assay in all cases: inhibition of tumour cell growth, NCI panel, 48 h
HCC-2998 colon = tested on: HCC-2998 colon
SR leukemia = tested on: SR leukemia
UACC-257 melanoma = tested on: UACC-257 melanoma
MALME-3M melanoma = tested on: MALME-3M melanoma
K-562 leukemia = tested on: K-562 leukemia
KM12 colon = tested on: KM12 colon
SF-295 CNS = tested on: SF-295 CNS
LOX IMVI melanoma = tested on: LOX IMVI melanoma
MDA-MB-435 = tested on: MDA-MB-435
SNB-75 CNS = tested on: SNB-75 CNS

Molecule	TGI (HCC-2998 colon)	TGI (SR leukemia) [µM]	TGI (UACC-257 melanoma)	TGI (MALME-3M melanoma)	TGI (K-562 leukemia) [µM]	TGI (KM12 colon) [µM]	TGI (SF-295 CNS) [µM]	TGI (LOX IMVI melanoma)	TGI (MDA-MB-435)	TGI (SNB-75 CNS) [µM]	GI50 (HCC-2998 colon)	GI50 (SR leukemia)	GI50 (UACC-257 melanoma)	GI50 (MALME-3M melanoma)	GI50 (K-562 leukemia)	GI50 (KM12 colon)	GI50 (SF-295 CNS)	GI50 (LOX IMVI melanoma)	GI50 (MDA-MB-435)	GI50 (SNB-75 CNS)
O=S(=O)(O)SCCNCCCCCC1CCCCC1	10.5 µM	> 33.3	19.5 µM	36.2 µM	> 35.8	7.76	16.4	4.78 µM	18.5 µM	16.3										
O=C(NOCCO)c1cc(CN2OCCCC2=O)c(F)c(F)c1Nc1ccc(I)cc1F		> 100	0.0393 µM and < 0.0128 µM	< 0.01 µM	> 100	> 100	> 75.4	12.2 µM and > 10 µM	77.1 µM and > 10 µM	> 100	< 0.0111 µM and 0.00172 µM	19.9 µM and > 10 µM	< 0.01 µM and 0.00204 µM	< 0.01 µM and 0.00185 µM	1.01 µM and 1.42 µM	0.0561 µM and 0.0719 µM	16.9 µM and > 10 µM	0.112 µM and 0.164 µM	< 0.01 µM and 0.00879 µM	16.4 µM and > 3.83 µM
CC(N1CCOCC1)C(O)(c1ccccc1)c1ccccn1 (centres undefined)	38.9 µM	> 100	> 100 µM	> 100 µM	> 100	> 100	> 100	> 100 µM	> 100 µM	> 100										
O=Cc1ccc(N2CCN(c3ccc(C=O)cc3)CC2)cc1	> 100 µM	> 100	> 100 µM	> 100 µM	> 100	> 100	> 100	> 100 µM	> 100 µM	> 100	60.8 µM	> 100 µM	> 100 µM	0.565 µM	> 100 µM	> 100 µM	> 100 µM	> 100 µM	> 100 µM	> 100 µM
O=C(C=C=Nc1ccccc1)C(=O)N=C=Cc1ccccc1	9.49 µM	> 100	5.56 µM	5.33 µM		19.1	40.9	4.48 µM	8 µM	18.5	4.04 µM	0.298 µM	2.38 µM	1.54 µM	1.59 µM	6.38 µM	14.5 µM	1.93 µM	2.33 µM	3.54 µM
CC(/C=N/N=C(N)N)=N\N=C(N)N	> 48.3 µM and 62.7 µM	333	521 µM	> 76.9 µM and 214 µM	785	34.4	856	202 µM	452 µM	187	9.52 µM	1.95 µM	> 73.7 µM	> 39.6 µM	23.1 µM	21.5 µM		29.9 µM	23 µM	28.3 µM
Cc1cc(Br)cc(C)c1NC(=O)C(=O)Nn1c(=S)[nH]c2ccccc2c1=O	> 100 µM	> 100	> 100 µM	> 100 µM	> 100	> 100	> 100	> 100 µM	> 100 µM	> 100										
O=C(/C=C/c1ccc([N+](=O)[O-])cc1)c1cccc(Nc2nc(Nc3ccccc3)nc(Nc3ccccc3)n2)c1	68.6 µM	6.92	> 100 µM	> 100 µM	28.2	29.5	> 100	44.6 µM	> 100 µM	94.8	18.1 µM	0.484 µM	68.7 µM	38.8 µM	2.89 µM	5.04 µM	9.81 µM	11.1 µM	20 µM	4.52 µM
CSCCCNC(=O)[C@H](CSC)NC(=O)c1csc(CCNC(=O)[C@@H](NSc2ccccc2[N+](=O)[O-])C(C)O)n1 (some centres undefined)	> 100 µM	> 100	> 100 µM	> 100 µM	> 100	> 100	> 100	> 100 µM	> 100 µM	> 100										
Cc1cc(Nc2nc(-c3ccncc3)nc3ccccc23)n[nH]1	> 100 µM	47.7	> 100 µM	> 100 µM	> 100	> 100	> 100	> 100 µM	> 100 µM		29.6 µM	1.72 µM	48 µM	> 100 µM	4.99 µM	0.335 µM	17.4 µM	2.69 µM	12.1 µM	
NNC(=O)C(O)C(O)C(=O)NN (centres undefined)	> 100 µM	> 100	> 100 µM	> 100 µM	> 100	> 100	> 100	> 100 µM	> 100 µM	> 100										
CC(C(N)=O)N(C)C(=O)c1cnc2ccccc2c1 (centres undefined)	> 100 µM	> 100	> 100 µM	> 100 µM	> 100	> 100	> 100		> 100 µM	> 100										
O=C(Nc1cccc(C(F)(F)F)c1)c1cc2ccccc2cc1O	28.8 µM	12.3	> 24.7 µM	6.74 µM	> 100	8.44	8.68	14.3 µM	4.72 µM	> 39.7	3.35 µM	0.533 µM	2.97 µM	1.15 µM	0.487 µM	2.45 µM	2.86 µM	1.92 µM	1.37 µM	2.25 µM
Cc1cc2nc3c4ccc(Br)cc4n(CCN(C)C)c3nc2cc1C	2.74 µM	10	3.91 µM	2.92 µM		4.66	2.91	1.9 µM	3.04 µM	5.19	1.23 µM	0.423 µM	1.88 µM	1.44 µM		1.54 µM	0.804 µM	0.532 µM	1.68 µM	1.82 µM
CN1CCN(c2ccc3nc(-c4ccc(OCCCCN5CCN(CCCCN6C(=O)c7cccc8cccc(c78)C6=O)CC5)cc4)[nH]c3c2)CC1	> 100 µM	> 100	74.7 µM	42.6 µM	> 100	> 100	> 100	> 100 µM	> 100 µM	> 100	> 100 µM	12.9 µM	30.3 µM	20.9 µM	> 100 µM	43.8 µM	62.4 µM	37.3 µM	41 µM	28.9 µM
C=CC(C)(O)CC/C=C(\CO)C(=O)OC1C(C)OC(O[C@](C)(C=C)CC/C=C(\CO)C(=O)O[C@H]2C[C@@]3(C(=O)OC4OC(CO)C(O)C(O)C4OC4OC(C)C(OC5OC(CO)C(O)C5O)C(OC5OC(CO)C(O)C(O)C5O)C4O)C(CC2(C)C)C2=CCC4[C@@]5(C)CC[C@H](OC6OC(COC7OC(C)C(O)C(O)C7OC7OCC(O)C(O)C7O)C(O)C(O)C6NC(C)=O)C(C)(C)C5CC[C@@]4(C)[C@]2(C)C[C@H]3O)C(O)C1O (some centres undefined)	0.195 µM	15.1	1.47 µM	1.01 µM	16.7	1.98	0.312	0.82 µM	0.382 µM	0.894	0.0688 µM	1.59 µM	0.461 µM	0.261 µM	7.13 µM	0.285 µM	0.083 µM	0.162 µM	0.0978 µM	0.154 µM
NS(=O)(=O)c1ccc(NC(=O)c2cccc(NC3=C(Cl)C(=O)N(Cc4ccccc4)C3=O)c2)cc1		1.73	29.4 µM		6.09	26.5	22.5	16.1 µM	24.1 µM	45.3		0.323 µM	14.7 µM		2.27 µM	6.83 µM	5.59 µM	3.54 µM	8.63 µM	19.4 µM
O=C(/C=C/c1cccc2ccccc12)Nc1ncc(Cc2ccccc2)s1	> 100 µM	> 100	> 100 µM	> 100 µM	> 100	> 100	2.33	11 µM	0.725 µM	1.55	2.57 µM	0.866 µM	4.97 µM	0.627 µM	0.397 µM	0.866 µM	0.443 µM	0.445 µM	0.247 µM	0.344 µM
Cc1cc2nc(-c3c(F)cccc3Cl)n(Cc3c(F)cccc3Cl)c2cc1C	23.7 µM	> 100	38.3 µM		> 100	37.7	33.3	30.2 µM	22.7 µM	> 100	11.2 µM	17.5 µM	16.4 µM		39.4 µM	10.5 µM	6.92 µM	13.5 µM	7.33 µM	45.5 µM
COc1cccc2c1cc1c3c(cc4c(c32)OCO4)C(=O)N1	> 100 µM		> 100 µM	> 100 µM	> 100	23.7	29.1	23.3 µM	> 100 µM	11.1	7.82 µM		27.3 µM	6.5 µM	8.89 µM	4.09 µM	7.27 µM	4.27 µM	10.9 µM	2.4 µM
COc1ccc(C2=Nc3c/c(=C\c4c(O)[nH]c5cc(Cl)ccc45)ccc3=N2)cc1	22.1 µM	3.89	25.8 µM	12.7 µM	11.5	14.2	63.8		1.97 µM	14.2	10.2 µM	1.13 µM	11 µM	2.87 µM	2.18 µM	2.49 µM	12.3 µM		0.26 µM	3.1 µM
COc1cc2c(cc1OCCCOc1ccc(-c3nc4ccc(N5CCN(C)CC5)cc4[nH]3)cc1)N=C[C@@H]1CCCN1C2=O		< 0.01		< 0.01 µM	0.818		< 0.0359	1.58 µM	< 0.01 µM	11.8		< 0.01 µM		< 0.01 µM	< 0.01 µM	< 0.01 µM	< 0.01 µM	< 0.01 µM	< 0.01 µM	< 0.01 µM
H-QIYKKYRTWYRKAWKVLGKV-NH2	63.4 µM	> 100	51.6 µM		> 100	9.37	23.9	> 100 µM	36.9 µM	22.5	17.5 µM	3.58 µM	13.8 µM		3.21 µM	2.97 µM	4.72 µM	23.7 µM	5.75 µM	6.06 µM
COc1cc(Cn2c(-c3ccccc3)cc3c2-c2oncc2CC3)cc(OC)c1	> 100 µM	> 40.7	> 100 µM		> 100	9.76	4.03	> 100 µM	0.34 µM	20.1	0.387 µM	0.308 µM			0.201 µM	0.313 µM	0.209 µM	0.757 µM	0.0815 µM	0.201 µM
CN(C(=O)CNC(=O)/C=C/c1cccc(Cl)c1)C1CCS(=O)(=O)CC1	> 100 µM	> 100	> 100 µM	> 100 µM		> 100	> 100	> 100 µM	> 100 µM	> 100	0.663 µM	> 100 µM	> 100 µM	3.45 µM		7.99 µM	5.03 µM	0.7 µM	2.1 µM	3.02 µM
Cc1ccc(-c2n[nH]c(=O)c3noc(-c4ccc(C)cc4)c23)cc1	> 100 µM	> 100	> 100 µM	23.4 µM	> 100	> 100		> 100 µM	0.651 µM		3.89 µM	0.441 µM	5.87 µM	1.09 µM	0.383 µM	0.713 µM		0.677 µM	0.235 µM	
C/C(=N/O)c1ccc(Nc2cc(-n3ccnc3)c3ccccc3n2)cc1	> 100 µM	> 100	9.35 µM	44.5 µM	> 100	18.5	> 100		> 100 µM	73.5	48 µM	3.78 µM	3.77 µM	11.4 µM	3.27 µM	2.64 µM	15.1 µM		36.4 µM	7.04 µM

From PubChem BioAssay (NCI)
